Results as given in patent US20250281509A1, “SEQUENTIAL HORMONE THERAPY TO IMPROVE SURVIVAL AND ENHANCE RESPONSE TO IMMUNE THERAPY IN MEN WITH PROSTATE CANCER” (The Johns Hopkins University, priority 2021, published 2025).
“And” between values parts separate entries of the source, which are not always exact repeats. Equal entries are not always repeated. Where two headings read alike, the source gives them in different places.

Legend:
NIK, p52, RELB = assay: Immunoblotting for non-canonical NF-kappaB pathway; type: cell-based, human
Procedure: For denaturing gels, lysates were mixed with Laemmli buffer containing β-mercaptoethanol, boiled for 5 mins and stored at −80° C. until use. Native lysates were mixed with native loading buffer (BioRad), and semi-native lysates were mixed with Laemmli buffer without beta-mercaptoethanol and stored at −80° C. without boiling. […] Membranes were blocked in 5% nonfat milk in wash buffer (Tris-buffered saline+0.1% Tween-20). After blocking, immunoblotting was performed with primary antibodies overnight at 4° C., followed by incubation with HRP-conjugated secondary antibodies for 1 h at room temperature. Blots were analyzed using the chemiluminescence method. Blots were developed using ECL Western blot detection reagent (GE Healthcare) for highly expressed proteins and Super Signal West Femto (Thermo Fisher) reagent for low expression proteins. Each experiment was repeated at least two to three times.

LNCaP cells [1] = settings: androgen-deprived LNCaP cells, high-dose DHT
LAPC4 cells = settings: androgen-deprived LAPC4 cells, high levels of DHT
autophagy = assay: Autophagy induction in PCa cell lines; type: cell-based, human
Procedure: (§1) Cell lysates were prepared either in 1× denaturing lysis buffer (Cell Signaling #9803) or non-denaturing lysis buffer (50 mM HEPES pH 7.4, 150 mM NaCl, 5 mM EDTA, 10% glycerol, 1% Nonidet P-40, and supplemented with phosphatase and protease inhibitors). For denaturing gels, lysates were mixed with Laemmli buffer containing β-mercaptoethanol, boiled for 5 mins and stored at −80° C. until use. Native lysates were mixed with native loading buffer (BioRad), and semi-native lysates were mixed with Laemmli buffer without beta-mercaptoethanol and stored at −80° C. without boiling. Native gels were resolved as described previously, Robitaille et al., 2016; denaturing and semi-native gels were resolved on 4-15% precast polyacrylamide gels (BioRad) followed by transfer to PVDF membrane. Membranes were blocked in 5% nonfat milk in wash buffer (Tris-buffered saline+0.1% Tween-20). After blocking, immunoblotting was performed with primary antibodies overnight at 4° C., followed by incubation with HRP-conjugated secondary antibodies for 1 h at room temperature. Blots were analyzed using the chemiluminescence method. Blots were developed using ECL Western blot detection reagent (GE Healthcare) for highly expressed proteins and Super Signal West Femto (Thermo Fisher) reagent for low expression proteins. Each experiment was repeated at least two to three times.
Cells were plated on 60-mm dishes to obtain 80% confluence on the next day. Cells were transfected with tandem mRFP-GFP fluorescent-tagged LC3 (ptfLC3) (Addgene #21074). 24 h post-transfection, cells were trypsinized and plated on sterile glass-bottom dishes at a 40-50% confluency and treated with androgens. Autophagosomes are labelled as green and red dual positive punctas and autolysosomes appear as red puncta as the green puncta is pH sensitive and quenched by the acidic lysosomal pH. Cells were then imaged using a live cell Zeiss LSM780-FCS Single-point, laser scanning confocal microscope. Images were processed using the ImageJ software. Cells with predominantly yellow RFP/GFP (autophagosome) or red RFP (autolysosome) punctae were counted and analyzed from at least twenty fields. Each experiment had images from at least five random fields and repeated three times.

CXCL10 = CXCL10 transcript and protein; type: cell-based, human; settings: LNCaP vs LAPC4 cells
Procedure: Total RNA was extracted from cells using Trizol reagent (Thermo Fisher) as per manufacturer's instructions. cDNA was synthesized from RNA by reverse transcription using SuperScript IV reverse (Thermo Fisher). Quantitative PCR was performed on samples mixed with SYBR master mix (BioRad) and gene-specific primers using a real-time thermocycler (BioRad). Data analysis was performed using the ΔΔCt method, and fold change (2^^−ΔΔ^Ct) was calculated after double normalization with the housekeeper gene and respective untreated control. Each PCR reaction was run in triplicates.
Cell lysates were prepared either in 1× denaturing lysis buffer (Cell Signaling #9803) or non-denaturing lysis buffer (50 mM HEPES pH 7.4, 150 mM NaCl, 5 mM EDTA, 10% glycerol, 1% Nonidet P-40, and supplemented with phosphatase and protease inhibitors). For denaturing gels, lysates were mixed with Laemmli buffer containing β-mercaptoethanol, boiled for 5 mins and stored at −80° C. until use. […] Blots were analyzed using the chemiluminescence method. […]
The concentration of 17 chemokines, cytokines, and growth factors in culture supernatants of control or R1881 treated LNCaP cells was determined using the Bioplex Pro Human Cytokine 17-plex assay system (Bio-Rad) according to manufacturer's protocol. […] Data was collected on the Bio-Rad BioPlex 200 instrument and analyzed using the Bio-Plex Manager (Bio-Rad Laboratory).

ferritin = assay: Ferritin level by western blot; type: cell-based, human; settings: LNCaP cells, supraphysiological levels
Procedure: as §1

STING = STING dimerization assay (native western blot); type: cell-based, human; settings: LNCaP vs LAPC4 cells
Procedure: as §1

AR-V = AR-V expression in VCaP cells exposed to R1881 (FIG. 1B); type: cell-based, human; settings: 48-hr exposure
Source text: FIG. 1A and FIG. 1B show (FIG. 1A) Effect of synthetic androgen R1881 or bicalutamide on growth of ADT-resistant LNCaP and VCAP; (FIG. 1B) expression of full-length AR (AR-FL), AR-variants (AR-Vs) using antibody to AR N-terminal domain and AR-V& using AR-V7 specific antibody in the absence or presence of R1881;
Thelen et al., 2013. These AR-V expressing cells are profoundly growth inhibited by high dose levels of androgens, FIG. 1A.

labile iron pool (Fe2+) = assay: Measurement of the labile iron pool; type: cell-based, human; settings: LNCaP cells, vs vehicle
Procedure: An iron assay kit (Sigma) was used to measure the labile iron pool in control and R1881 treated cells. LNCaP and LAPC4 cells were culture in a 100-mm tissue culture dish and were treated for […] before lysis in the buffer provided with the kit by snap freezing and thawing method. The lysate was cleared by centrifuging at 13000×g, and iron was measured by iron detection reagents supplied in the kit. Iron levels were calculated and normalized by the total protein present in the cell lysate. Levels of Fe^2+ were analyzed in SupraT treated cells and were normalized to vehicle control cells.

LNCaP cells [2] = assay: Annexin-V positivity; type: cell-based, human
lipid peroxides = assay: Lipid peroxide sensor C11-BODIPY; type: cell-based, human; settings: LNCaP cells, vs vehicle
cytoplasmic DNA = assay: Confocal microscopy of cytoplasmic DNA; type: cell-based, human; settings: combination of hydroxychloroquine and R1881
Procedure: Cells were grown on sterile coverslips in low density and were treated with R1881 (T) or vehicle control (C). After treatment, media was removed, and cells were fixed and permeabilized using chilled methanol for 10 min in deep-freezer followed by 10 min fixation in 10% natural buffered formalin at room temperature. Post-fixation, cells were blocked overnight in sterile-filtered 5% BSA in PBS at 4° C. Cells were incubated with a primary antibody, followed by a suitable fluorochrome tagged secondary antibody at 4° C. overnight. Both primary and secondary antibodies were diluted with 5% BSA in PBS. Cells were postfixed with 10% NBF for 2-3 min before mounting on a clean glass slide using Vectashield antifade mounting media (Vector Laboratories). Image acquisition was performed on the LSM 700 laser confocal microscope (Zeiss). Experiment was repeated at least three times and images from at least five random fields from each experiment were used for analysis. Images were analyzed using the image processing package Fiji.

PARP cleavage = PARP cleavage in prostate cancer cell lines; type: cell-based, human
Procedure: as §1

CRPC [3] = assay: RESTORE Phase II study (NCT02090114); type: in vivo, human; settings: re-challenge with the agent patients progressed on before BAT
Source text: The RESTORE study (NCT02090114) was an NIH sponsored Phase II study designed to assess the safety and efficacy of BAT in men (n=30 per cohort) with CRPC progressing on enzalutamide (Cohort A) or abiraterone (Cohort B), FIG. 6A. Shah et al., 2004. The primary endpoint of the first part of the study was to assess PSA response to BAT. Secondary endpoints included objective response, safety, and quality of life. The second part of the study was to determine in BAT could re-sensitize patients to repeat exposure to second line therapy that patients were progressing on prior to receiving BAT. Thus, patients progressing on enzalutamide were re-exposed to enzalutamide after BAT and similarly for abiraterone. Both arms of this study met the primary endpoint. PSA50 Response to BAT was 30% in patient's post-enzalutamide and 18% post-abiraterone, FIG. 6B. Shah et al., 2004. […] Overall duration of response to BAT and duration of response to re-exposure was longer in the post-enzalutamide vs. post-abiraterone cohort. The PSA50 response to re-exposure to enzalutamide was 71% vs. only 21% for patients re-exposed to abiraterone, FIG. 6B. Shah et al., 2004. A third cohort was later added (Cohort C) for men progressing on ADT alone. Overall, 90 men were treated on this study over a 4-year period (2014-2018).

CRPC [4] = settings: post-docetaxel setting; cited from earlier work
[5] = tested on: metastatic castration-resistant prostate cancer; settings: cited from earlier work
CRPC [6] = settings: enzalutamide post-abiraterone, pre-chemotherapy setting; cited from earlier work
[7] = tested on: CRPC progressing on abiraterone; assay: TRANSFORMER randomized Phase II study (NCT02286921); type: in vivo, human; settings: for PSA50 response: patients crossing from BAT to enzalutamide
Procedure: The TRANSFORMER study (NCT02286921) was a DOD-sponsored randomized Phase II study designed to compare the efficacy of BAT vs. enzalutamide in asymptomatic men with CRPC progressing on abiraterone, FIG. 7A. The study was conducted at 17 academic centers across the U.S. The study was coordinated by the Prostate Cancer Disease Group clinical research team at Johns Hopkins, who performed regulatory oversight, study/site monitoring, and data analyses. From 2015-2018, 195 patients underwent 1:1 randomization to either standard dose enzalutamide (n=101) or BAT (n=94) at 400 mg IM every 28 days. The primary endpoint was clinical/radiographic PFS. At time of progression, patients were given the option to crossover to the alternate therapy. The trial was designed to show a 50% improvement in the primary endpoint for BAT vs. enzalutamide. […] Objective response was 24.4% for BAT and 4.2% for enzalutamide (p=0.067). Best PSA50 was 26.4% for BAT and 25.5% for enzalutamide (p=0.697).
At time of progression, 46 (49%) of patients on the […] crossed over to receive BAT and 34 (33.7%) crossed over from BAT to receive enzalutamide and were available for analysis.

CRPC [8] = settings: cited from earlier work
CRPC [9] = assay: Post hoc analysis of PSA response to subsequent hormonal therapies post-BAT (pilot study); type: in vivo, human
Procedure: As part of the aforementioned pilot study, a post hoc exploratory analysis on the effect of BAT on subsequent hormonal therapies was performed. […] All of the patients had received at least one anti-androgen prior to starting the study, Table 2. PSA response to secondary hormonal therapy after return to castrate T-levels post-BAT.

[10] = initial randomized arms, post-abiraterone
[11] = Enzalutamide Phase III (PREVAIL)

C[C@]12CCC(=O)C[C@@H]1CC[C@@H]1[C@@H]2CC[C@]2(C)[C@@H](O)CC[C@@H]12 [DHT, dihydrotestosterone]
RelB and NIK stabilization (NIK, p52, RELB): led to stabilization of RelB and NIK
double strand break formation (γH2A.x foci) (LNCaP cells [1]): numerous γH2A.x foci
double strand breaks (γH2A.x foci) (LAPC4 cells): numerous double strand breaks throughout the nucleus
autophagy (autophagy; LAPC4 cells): but not in LAPC4 cells
autophagy (autophagy; LNCaP cells): robustly increased autophagy
CXCL10 induction (CXCL10): able to induce CXCL10 (less robustly than R1881) preferentially in LNCaP cells
ferritin levels (ferritin): decreased ferritin levels
STING and MAVS activation (STING): activated STING and MAVS preferentially in LNCaP cells, however, the activation was not as robust as R1881

C[C@]1(O)CC[C@H]2[C@@H]3CCC4=CC(=O)CCC4=C3C=C[C@@]21C [R1881, 17α-methyl-19-nor-δ9,11-testosterone]
AR-V expression (AR-V): Complete loss of AR-V expression
labile iron pool (labile iron pool (Fe2+)): increased
Annexin-V positivity (LNCaP cells [2]): no significant increase in Annexin-V
lipid peroxides (lipid peroxides): increased
cytoplasmic DNA (cytoplasmic DNA; LAPC4 cells): did not show any cytoplasmic DNA
cytoplasmic DNA (cytoplasmic DNA; LNCaP cells): marked localization of cytoplasmic DNA
cytoplasmic DNA (cytoplasmic DNA; VCaP cells): fewer cytoplasmic DNA puncta
basal autophagy (autophagy; LAPC4 and 22Rv1 cells): remained largely unaffected
autophagy (autophagy; LNCaP and VCaP cells): notably induces autophagy
PARP cleavage (PARP cleavage): none of the prostate cancer cell lines treated with synthetic androgen R1881 had any substantial enhancement of PARP cleavage

CNC(=O)c1ccc(N2C(=S)N(c3ccc(C#N)c(C(F)(F)F)c3)C(=O)C2(C)C)cc1F [enzalutamide]
PSA50 response to re-exposure post-BAT (CRPC [3]): 71%
improvement in survival (CRPC [4]): approximately 5 months
PFS (median), clinical/radiographic ([5]; AR-V7-negative patients): 6.1 months
PSA response rate ([5]; AR-V7-negative patients): 52.6%
PSA-PFS (median) ([5]; AR-V7-negative patients): 5.9 months
PFS (median), clinical/radiographic ([5]; AR-V7-positive patients): 2.1 months
PSA response rate ([5]; AR-V7-positive patients): 0%
PSA-PFS (median) ([5]; AR-V7-positive patients): 1.4 months
median rPFS (CRPC [6]): ≤ 6 months
Objective response ([7]; enzalutamide post-BAT patients): 28.6%
Time to PSA progression ([7]; immediately post-abiraterone): 3.8 months
increase in time to PSA progression, post-BAT vs post-abiraterone ([7]; in vivo): ~3 fold
overall survival ([7]; in vivo): 28 months
Best PSA50 [7, 10]: 25.5%
Objective response [7, 10]: 4.2%
Best PSA50 ([7]; initial randomized arms, post-abiraterone, listed as Enza): 25%
clinical/radiographic PFS ([7]; initial randomized arms, p=0.2267): 5.72 m
PSA50 response [7]: 72.7%
PSA50 response ([7]; listed as Enza): 78%
Time to PSA progression ([7]; post-BAT): 10.9 months
Time to PSA progression ([7]; post-BAT, listed as Enza): 11 months
>50% decline PSA (%) (CRPC [8]; [11]): 78%
Objective Response (%) (CRPC [8]; [11]): 59%
PSA PFS (CRPC [8]; [11]): 11.2
TTP (m) (CRPC [8]; [11]): 20 m
hazard ratio, overall survival (CRPC [8]; enzalutamide vs placebo, 95% CI 0.60 to 0.84): 0.71
median overall survival (CRPC [8]; pre-chemotherapy setting, placebo 30.2 months): 32.4 months
patients with a PSA decline on second line therapy (CRPC [9]; after return to castrate testosterone levels post-BAT): 4/4
Maximum PSA decline upon secondary HT initiation (%) (CRPC [9]; per subject, secondary HT received post-study after return to castrate T-levels post-BAT): −30.4% and −99.5% and −78.3% and −53.2%
patients with >50% PSA decline on second line therapy (CRPC [9]; post-BAT): 3/4
PSA decline upon re-challenge (CRPC [9]; subjects who had previously progressed on the same agent): 53.2%
